Values after ≈ are worked out from the molar mass of the structure shown. Some results are limits rather than exact numbers.

As a reminder, the LD50 is the dose at which mortality reaches 50%. Usually LC50 stands for the concentration that kills 50% of the test population.

Format in all cases: functional
The test system of assay [1] is Sitophilus zeamais. As to the kind of experiment: Contact toxicity against adult Sitophilus zeamais assessed as mortality applied to dorsal thorax of insect measured daily for 1 week. The conditions noted are these: 168 h.
Assay [2] deals with Sitophilus zeamais. Briefly: Insecticidal activity against adult Sitophilus zeamais assessed as mortality measured daily for 1 week by fumigation assay. As to conditions: 168 h.
Assay [3] deals with Sitophilus zeamais. Briefly: Insecticidal activity against adult Sitophilus zeamais assessed as mortality after 24 hr by fumigation assay.

Regarding `CC1=CC2C(CC1)C2(C)C` (configuration not stated) [2-CARENE], in the assay with Sitophilus zeamais [1], the median lethal dose (LD50) turned out to be 3.55 mg/kg. For the same compound, the LC50 in the assay with Sitophilus zeamais [2] turned out to be 14 µg/mL (≈ 103 µM).

As to `CC(C)[C@@]12C=C[C@@](C)(CC1)OO2` [(Z)-ASCARIDOLE], the LD50 with Sitophilus zeamais [1] is 0.86 mg/kg. In addition, in the assay on Sitophilus zeamais [2], the 50% lethal concentration (LC50) is 0.84 µg/mL (≈ 4.99 µM). The like results for `CC1=CC=C(C(C)C)CC1` [ALPHA-TERPINENE] were, in that order, 3.47 mg/kg and 5.46 µg/mL (≈ 40.1 µM).

For the compound `CBr` [BROMOMETHANE], in the assay on Sitophilus zeamais [3], the LC50 was determined as 0.67 µg/mL (≈ 7.06 µM). On to `CC(C)[C@]12CC[C@@]3(C)O[C@H]3[C@H]1O2` [ISOASCARIDOLE], for which the median lethal dose (LD50) with Sitophilus zeamais [1] amounted to 2.16 mg/kg. Besides, the LC50 in the assay with Sitophilus zeamais [2] was determined as 2.45 µg/mL (≈ 14.6 µM). As to `Cc1ccc(C(C)C)cc1` [P-CYMENE], the LD50 with Sitophilus zeamais [1] was > 23.2 mg/kg. Further, the LC50 in the assay on Sitophilus zeamais [2] amounted to 23.3 µg/mL (≈ 173 µM).

For `P` [PHOSPHINE], the LC50 with Sitophilus zeamais [3] was found to be 0.006 µg/mL (≈ 0.176 µM).
